Measured values published in the supplement of paper PMC11451515.

Test system: P12-Ichikawa
Assay: cell viability relative to DMSO control; higher = less cytotoxic
Settings: 48 h
Method in brief: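 Leukemia cells (NOMO1 or SEM, 500 cells/well; P12-Ichikawa, 1000 cells/well) were seeded in 5 μl in 1536-well plates after at least four passages of adaptation to each medium. They received library compounds in DMSO by pin dosing, 11 threefold points from 47 μM to 0.79 nM. Luminescence with CellTiter-Glo One was read after 48 h at 37°C. Viability is stated per plate relative to DMSO wells, with cell-free wells as background.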

[1] = HPLM + 10% dialyzed FBS, 0.000781 µM
[2] = HPLM + 10% dialyzed FBS, 0.00234 µM
[3] = HPLM + 10% dialyzed FBS, 0.00702 µM
[4] = HPLM + 10% dialyzed FBS, 0.0211 µM
[5] = HPLM + 10% dialyzed FBS, 0.0632 µM
[6] = HPLM + 10% dialyzed FBS, 0.19 µM
[7] = HPLM + 10% dialyzed FBS, 0.569 µM
[8] = HPLM + 10% dialyzed FBS, 1.71 µM
[9] = HPLM + 10% dialyzed FBS, 5.12 µM
[10] = HPLM + 10% dialyzed FBS, 15.4 µM
[11] = HPLM + 10% dialyzed FBS, 46.1 µM
[12] = RPMI 5 mM glucose + 10% FBS, 0.000781 µM
[13] = RPMI 5 mM glucose + 10% FBS, 0.00234 µM
[14] = RPMI 5 mM glucose + 10% FBS, 0.00702 µM
[15] = RPMI 5 mM glucose + 10% FBS, 0.0211 µM
[16] = RPMI 5 mM glucose + 10% FBS, 0.0632 µM
[17] = RPMI 5 mM glucose + 10% FBS, 0.19 µM
[18] = RPMI 5 mM glucose + 10% FBS, 0.569 µM
[19] = RPMI 5 mM glucose + 10% FBS, 1.71 µM
[20] = RPMI 5 mM glucose + 10% FBS, 5.12 µM
[21] = RPMI 5 mM glucose + 10% FBS, 15.4 µM
[22] = RPMI 5 mM glucose + 10% FBS, 46.1 µM
[23] = RPMI 5 mM glucose + 10% dialyzed FBS, 0.000781 µM
[24] = RPMI 5 mM glucose + 10% dialyzed FBS, 0.00234 µM
[25] = RPMI 5 mM glucose + 10% dialyzed FBS, 0.00702 µM
[26] = RPMI 5 mM glucose + 10% dialyzed FBS, 0.0211 µM
[27] = RPMI 5 mM glucose + 10% dialyzed FBS, 0.0632 µM
[28] = RPMI 5 mM glucose + 10% dialyzed FBS, 0.19 µM
[29] = RPMI 5 mM glucose + 10% dialyzed FBS, 0.569 µM
[30] = RPMI 5 mM glucose + 10% dialyzed FBS, 1.71 µM
[31] = RPMI 5 mM glucose + 10% dialyzed FBS, 5.12 µM
[32] = RPMI 5 mM glucose + 10% dialyzed FBS, 15.4 µM
[33] = RPMI 5 mM glucose + 10% dialyzed FBS, 46.1 µM

Structure (SMILES) | cell viability [1] | cell viability [2] | cell viability [3] | cell viability [4] | cell viability [5] | cell viability [6] | cell viability [7] | cell viability [8] | cell viability [9] | cell viability [10] | cell viability [11] | cell viability [12] | cell viability [13] | cell viability [14] | cell viability [15] | cell viability [16] | cell viability [17] | cell viability [18] | cell viability [19] | cell viability [20] | cell viability [21] | cell viability [22] | cell viability [23] | cell viability [24] | cell viability [25] | cell viability [26] | cell viability [27] | cell viability [28] | cell viability [29] | cell viability [30] | cell viability [31] | cell viability [32] | cell viability [33]
Nc1nc(F)nc2c1ncn2[C@@H]1O[C@H](COP(=O)(O)O)[C@@H](O)[C@@H]1O | 119% | 120% | 121% | 121% | 130% | 124% | 120% | 133% | 128% | 84.2% | 52.2% | 122% | 121% | 132% | 129% | 122% | 142% | 126% | 141% | 137% | 110% | 74.8% | 127% | 123% | 123% | 123% | 130% | 138% | 124% | 126% | 129% | 99.5% | 62.1%
CN(C)c1nc(Cc2ccc(NC(=O)c3ccc(C(F)(F)F)cc3)cc2)nc(N(C)C)c1CC(=O)O | 106% | 100% | 107% | 104% | 105% | 103% | 99.5% | 102% | 103% | 98.2% | 90.3% | 106% | 109% | 99.5% | 105% | 109% | 103% | 103% | 108% | 100% | 103% | 98.5% | 95.7% | 96.7% | 99.6% | 105% | 94.7% | 96.9% | 99.3% | 96.8% | 95.1% | 93.8% | 85.2%
Cc1ccc(C(=O)Nc2cccc(C(F)(F)F)c2)cc1Nc1nc(-c2cccnc2)nc2c1cnn2C | 88.1% | 90.8% | 93.7% | 89.5% | 91.2% | 90% | 86.6% | 85.9% | 83.3% | 86.7% | 84% | 73.1% | 83.8% | 88.9% | 85.6% | 83.9% | 82.8% | 87.5% | 88.2% | 79.5% | 78.8% | 74.5% | 90.8% | 85.2% | 87.6% | 86.7% | 95.5% | 84.7% | 90.9% | 96.7% | 75.8% | 76.8% | 86.5%
CC(C)C1CCC(C(=O)N[C@H](Cc2ccccc2)C(=O)O)CC1 (some centres not stated) | 100% | 95.9% | 98.9% | 103% | 95% | 99.5% | 92.5% | 88.2% | 93.6% | 87.4% | 86.9% | 94.3% | 97.8% | 91.9% | 96.9% | 98.2% | 93.7% | 84.4% | 88.3% | 86.3% | 83.5% | 87.1% | 91.1% | 95.3% | 88.2% | 92.3% | 90.9% | 89.7% | 77.7% | 86.9% | 89.7% | 79.9% | 84.6%
C[C@]12CCC3c4ccc(O)cc4CCC3C1CCC2=O (some centres not stated) | 92% | 95.3% | 101% | 98.9% | 102% | 97.9% | 84.6% | 94% | 90.2% | 73.7% | 83.9% | 88.2% | 95.4% | 96.8% | 103% | 102% | 100% | 98.8% | 95.5% | 87.4% | 72.6% | 83.9% | 86.9% | 93.6% | 86.2% | 87% | 87.7% | 88.4% | 97.9% | 80.7% | 72.8% | 54.4% | 66.4%
CC(C(C)N1CC(=O)NC(=O)C1)N1CC(=O)NC(=O)C1 (configuration not stated) | 117% | 123% | 121% | 119% | 131% | 130% | 130% | 117% | 109% | 102% | 89.6% | – | – | – | – | – | – | – | – | – | – | – | – | – | – | – | – | – | – | – | – | – | –
NC(=O)c1cccc(-c2cc(Nc3ccc(OC(F)(F)F)cc3)ncn2)c1 | 101% | 96.4% | 98.5% | 101% | 109% | 104% | 105% | 102% | 97% | 99.3% | 89.5% | 102% | 97.7% | 98% | 94.2% | 105% | 107% | 105% | 98.7% | 91.5% | 96.1% | 80.3% | 99.5% | 85.7% | 97.1% | 91.9% | 111% | 104% | 96.1% | 98.8% | 100% | 95.8% | 81.5%
CCNC(=O)CCC/C=C\C[C@@H]1[C@@H](/C=C/C(O)CCc2ccccc2)[C@@H](O)C[C@@H]1O (some centres not stated) | 117% | 121% | 111% | 111% | 116% | 114% | 111% | 114% | 105% | 106% | 99.7% | 109% | 125% | 109% | 130% | 122% | 109% | 111% | 112% | 109% | 103% | 95% | 121% | 120% | 127% | 111% | 110% | 105% | 116% | 106% | 111% | 97.3% | 86.6%
